Assay in all cases: relative viability (nuclei count vs DMSO), 5 days (fraction); higher = more cells survive
Compound in the experiment “Cediranib + Lapatinib”: COc1cc2c(Oc3ccc4[nH]c(C)cc4c3F)ncnc2cc1OCCCN1CCCC1 [Cediranib] + CS(=O)(=O)CCNCc1ccc(-c2ccc3ncnc(Nc4ccc(OCc5cccc(F)c5)c(Cl)c4)c3c2)o1 [Lapatinib] (partner 2 µM)
Summed up: (§1)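 The day after seeding in 1536-well plates, lung cancer cell lines were treated by pin tool with a single drug, or with a fixed anchor-drug dose together with five library-drug doses (not always all listed) in √10 steps. After 5 days, a combined fix-and-stain solution (final 0.05% Triton X-100, 1% formaldehyde, 1 ug/ml Hoechst) was added. Nuclei counted on 4× images gave relative viability as treated counts over vehicle counts, reported as the median of duplicate plates.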

Compound in the experiment “Cediranib + Linsitinib”: COc1cc2c(Oc3ccc4[nH]c(C)cc4c3F)ncnc2cc1OCCCN1CCCC1 [Cediranib] + C[C@]1(O)C[C@@H](c2nc(-c3ccc4ccc(-c5ccccc5)nc4c3)c3c(N)nccn32)C1 [Linsitinib] (partner 1 µM)
Summed up:
as §1

Compound in the experiment “Cediranib + Decitabine”: COc1cc2c(Oc3ccc4[nH]c(C)cc4c3F)ncnc2cc1OCCCN1CCCC1 [Cediranib] + Nc1ncn([C@H]2C[C@H](O)[C@@H](CO)O2)c(=O)n1 [Decitabine] (partner 2 µM)
In short, it runs like this:
as §1

Compound in the experiment “Cediranib + Olaparib”: COc1cc2c(Oc3ccc4[nH]c(C)cc4c3F)ncnc2cc1OCCCN1CCCC1 [Cediranib] + O=C(c1cc(Cc2n[nH]c(=O)c3ccccc23)ccc1F)N1CCN(C(=O)C2CC2)CC1 [Olaparib] (partner 8 µM)
Summed up: as §1

In the case of 201T, the relative viability with Cediranib + Lapatinib (first compound 0.04 µM) was 1.08; with Cediranib + Lapatinib (first compound 0.1265 µM) it was 0.897; with Cediranib + Lapatinib (first compound 0.4 µM) it was 1.02; with Cediranib + Lapatinib (first compound 1.265 µM) it was 1.01; with Cediranib + Lapatinib (first compound 4 µM), 0.996; with Cediranib + Linsitinib (first compound 0.04 µM), 1.11. Further, the relative viability with Cediranib + Linsitinib (first compound 0.1265 µM) was 1.18; with Cediranib + Linsitinib (first compound 0.4 µM) it was 0.941; with Cediranib + Linsitinib (first compound 1.265 µM), 1.01; in the experiment with Cediranib + Linsitinib (first compound 4 µM) it was 0.974; with Cediranib + Decitabine (first compound 0.04 µM), 0.876; with Cediranib + Decitabine (first compound 0.1265 µM), 0.89. In addition, the relative viability with Cediranib + Decitabine (first compound 0.4 µM) came to 0.889; with Cediranib + Decitabine (first compound 1.265 µM) it was 0.868; with Cediranib + Decitabine (first compound 4 µM), 0.878; with Cediranib + Olaparib (first compound 0.04 µM) it was 0.805; with Cediranib + Olaparib (first compound 0.1265 µM), 0.862; with Cediranib + Olaparib (first compound 0.4 µM), 0.808. Also, the relative viability in the experiment with Cediranib + Olaparib (first compound 1.265 µM) is 0.829; with Cediranib + Olaparib (first compound 4 µM), 0.828.

For A549, the relative viability in the experiment with Cediranib + Lapatinib (first compound 0.04 µM) was 0.927; in the experiment with Cediranib + Lapatinib (first compound 0.1265 µM) it was 1.01; with Cediranib + Lapatinib (first compound 0.4 µM) it was 0.949; in the experiment with Cediranib + Lapatinib (first compound 1.265 µM), 0.994; with Cediranib + Lapatinib (first compound 4 µM) it was 0.992; with Cediranib + Linsitinib (first compound 0.04 µM), 0.723. Moreover, the relative viability with Cediranib + Linsitinib (first compound 0.1265 µM) worked out at 0.644; with Cediranib + Linsitinib (first compound 0.4 µM), 0.543; with Cediranib + Linsitinib (first compound 1.265 µM) it was 0.633; in the experiment with Cediranib + Linsitinib (first compound 4 µM) it was 0.471; with Cediranib + Decitabine (first compound 0.04 µM), 0.449; in the experiment with Cediranib + Decitabine (first compound 0.1265 µM), 0.115. Besides, the relative viability was found to be 0.272 with Cediranib + Decitabine (first compound 0.4 µM); 0.258 in the experiment with Cediranib + Decitabine (first compound 1.265 µM); 0.319 in the experiment with Cediranib + Decitabine (first compound 4 µM); 0.353 in the experiment with Cediranib + Olaparib (first compound 0.04 µM); 0.23 with Cediranib + Olaparib (first compound 0.1265 µM); 0.302 with Cediranib + Olaparib (first compound 0.4 µM). The relative viability is 0.333 with Cediranib + Olaparib (first compound 1.265 µM) and 0.473 in the experiment with Cediranib + Olaparib (first compound 4 µM).

For A-427, the relative viability with Cediranib + Lapatinib (first compound 0.04 µM) was 1.03; in the experiment with Cediranib + Lapatinib (first compound 0.4 µM), 0.938; with Cediranib + Lapatinib (first compound 1.265 µM), 0.897; in the experiment with Cediranib + Lapatinib (first compound 4 µM), 0.981; in the experiment with Cediranib + Linsitinib (first compound 0.04 µM), 1.17; with Cediranib + Linsitinib (first compound 0.4 µM), 0.984. For the same cell line, the relative viability in the experiment with Cediranib + Linsitinib (first compound 1.265 µM) was 1.07; in the experiment with Cediranib + Linsitinib (first compound 4 µM) it was 1.17; in the experiment with Cediranib + Decitabine (first compound 0.04 µM), 0.566; with Cediranib + Decitabine (first compound 0.4 µM) it was 0.537; in the experiment with Cediranib + Decitabine (first compound 1.265 µM), 0.537; in the experiment with Cediranib + Decitabine (first compound 4 µM), 0.66. Besides, the relative viability in the experiment with Cediranib + Olaparib (first compound 0.04 µM) turned out to be 0.802; with Cediranib + Olaparib (first compound 0.4 µM) it was 0.668; in the experiment with Cediranib + Olaparib (first compound 1.265 µM), 0.67; in the experiment with Cediranib + Olaparib (first compound 4 µM), 0.753.

Regarding CAL-12T, the relative viability in the experiment with Cediranib + Lapatinib (first compound 0.04 µM) was 0.681; with Cediranib + Lapatinib (first compound 0.4 µM) it was 0.614; with Cediranib + Lapatinib (first compound 1.265 µM), 0.676; in the experiment with Cediranib + Lapatinib (first compound 4 µM) it was 0.877; in the experiment with Cediranib + Linsitinib (first compound 0.04 µM), 0.95; in the experiment with Cediranib + Linsitinib (first compound 0.1265 µM) it was 0.864. For the same cell line, the relative viability with Cediranib + Linsitinib (first compound 0.4 µM) was 0.691; with Cediranib + Linsitinib (first compound 1.265 µM), 0.865; with Cediranib + Linsitinib (first compound 4 µM) it was 0.714; in the experiment with Cediranib + Olaparib (first compound 0.04 µM) it was 0.815; with Cediranib + Olaparib (first compound 0.1265 µM), 0.646; with Cediranib + Olaparib (first compound 0.4 µM) it was 0.647. Further, the relative viability with Cediranib + Olaparib (first compound 1.265 µM) worked out at 0.74; with Cediranib + Olaparib (first compound 4 µM) it was 0.786.

Regarding Calu-6, the relative viability in the experiment with Cediranib + Lapatinib (first compound 0.04 µM) stood at 1.17; with Cediranib + Lapatinib (first compound 0.1265 µM), 1.08; in the experiment with Cediranib + Lapatinib (first compound 0.4 µM) it was 0.874; with Cediranib + Lapatinib (first compound 1.265 µM) it was 1.03; in the experiment with Cediranib + Lapatinib (first compound 4 µM), 1.14; with Cediranib + Linsitinib (first compound 0.04 µM), 0.881. Further, the relative viability in the experiment with Cediranib + Linsitinib (first compound 0.1265 µM) is 0.971; with Cediranib + Linsitinib (first compound 0.4 µM), 0.938; with Cediranib + Linsitinib (first compound 1.265 µM), 0.854; with Cediranib + Linsitinib (first compound 4 µM) it was 1.06; with Cediranib + Olaparib (first compound 0.04 µM) it was 0.592; with Cediranib + Olaparib (first compound 0.1265 µM), 0.566. Also, the relative viability with Cediranib + Olaparib (first compound 0.4 µM) is 0.599; in the experiment with Cediranib + Olaparib (first compound 1.265 µM), 0.582; with Cediranib + Olaparib (first compound 4 µM) it was 0.56.

For the cell line ChaGo-K-1, the relative viability with Cediranib + Decitabine (first compound 0.04 µM) turned out to be 0.51; with Cediranib + Decitabine (first compound 0.1265 µM), 0.376; with Cediranib + Decitabine (first compound 0.4 µM), 0.506; with Cediranib + Decitabine (first compound 1.265 µM), 0.57; in the experiment with Cediranib + Decitabine (first compound 4 µM), 0.784; in the experiment with Cediranib + Olaparib (first compound 0.04 µM) it was 0.403. In addition, the relative viability with Cediranib + Olaparib (first compound 0.1265 µM) came to 0.307; with Cediranib + Olaparib (first compound 0.4 µM), 0.403; with Cediranib + Olaparib (first compound 1.265 µM) it was 0.424; with Cediranib + Olaparib (first compound 4 µM), 0.41.

Turning to EBC-1, the relative viability was 0.252 with Cediranib + Lapatinib (first compound 0.04 µM); 0.206 in the experiment with Cediranib + Lapatinib (first compound 0.1265 µM); 0.213 with Cediranib + Lapatinib (first compound 0.4 µM); 0.226 with Cediranib + Lapatinib (first compound 1.265 µM); 0.202 with Cediranib + Lapatinib (first compound 4 µM); 1.14 with Cediranib + Linsitinib (first compound 0.04 µM). Further, the relative viability with Cediranib + Linsitinib (first compound 0.1265 µM) stood at 1.05; with Cediranib + Linsitinib (first compound 0.4 µM), 0.882; with Cediranib + Linsitinib (first compound 1.265 µM), 0.609; in the experiment with Cediranib + Linsitinib (first compound 4 µM), 0.802; with Cediranib + Olaparib (first compound 0.04 µM), 0.715; with Cediranib + Olaparib (first compound 0.1265 µM), 0.744. Also, the values for the relative viability in the experiment with Cediranib + Olaparib (first compound 0.4 µM), with Cediranib + Olaparib (first compound 1.265 µM) and with Cediranib + Olaparib (first compound 4 µM) were 0.668, 0.786 and 0.88, respectively.

Take IA-LM: the relative viability was determined as 0.933 with Cediranib + Lapatinib (first compound 0.04 µM); 0.938 in the experiment with Cediranib + Lapatinib (first compound 0.1265 µM); 0.673 with Cediranib + Lapatinib (first compound 0.4 µM); 0.732 with Cediranib + Lapatinib (first compound 1.265 µM); 0.794 with Cediranib + Lapatinib (first compound 4 µM); 0.629 with Cediranib + Linsitinib (first compound 0.04 µM). Further, the relative viability in the experiment with Cediranib + Linsitinib (first compound 0.1265 µM) turned out to be 0.772; in the experiment with Cediranib + Linsitinib (first compound 0.4 µM) it was 0.586; with Cediranib + Linsitinib (first compound 1.265 µM) it was 0.436; with Cediranib + Linsitinib (first compound 4 µM), 0.634; with Cediranib + Olaparib (first compound 0.04 µM), 0.993; in the experiment with Cediranib + Olaparib (first compound 0.1265 µM), 0.848. The figures for the relative viability in the experiment with Cediranib + Olaparib (first compound 0.4 µM), in the experiment with Cediranib + Olaparib (first compound 1.265 µM) and with Cediranib + Olaparib (first compound 4 µM) were 0.824, 0.867 and 1.02, respectively.

With LCLC-103H, the relative viability with Cediranib + Linsitinib (first compound 0.04 µM) turned out to be 1.19; in the experiment with Cediranib + Linsitinib (first compound 0.1265 µM), 1.12; with Cediranib + Linsitinib (first compound 0.4 µM) it was 1.04; in the experiment with Cediranib + Linsitinib (first compound 1.265 µM), 1.02; in the experiment with Cediranib + Linsitinib (first compound 4 µM), 1.18; with Cediranib + Decitabine (first compound 0.04 µM), 0.789. Besides, the relative viability with Cediranib + Decitabine (first compound 0.1265 µM) worked out at 0.815; in the experiment with Cediranib + Decitabine (first compound 0.4 µM) it was 0.781; with Cediranib + Decitabine (first compound 1.265 µM) it was 0.731; with Cediranib + Decitabine (first compound 4 µM), 0.761; with Cediranib + Olaparib (first compound 0.04 µM), 0.797; with Cediranib + Olaparib (first compound 0.1265 µM), 0.836. Moreover, the figures for the relative viability with Cediranib + Olaparib (first compound 0.4 µM), with Cediranib + Olaparib (first compound 1.265 µM) and in the experiment with Cediranib + Olaparib (first compound 4 µM) were 0.739, 0.749 and 0.658, respectively.

The record behind these values is the supplement of paper PMC10307832.
